The values that follow come from patent US4548938A, “5-H-1,3,4-thiadiazolo[3,2-a]pyrimidin-5-one compounds” (Janssen Pharmaceutica N.V., priority 1985, dated 1985).

Each structure is given as a SMILES string. Where a name gives a salt, the structure may show the parent alone. Read-outs that look alike come from different tables or passages of the source.

The subject of assay [1] is compound 48/80-induced gastric lesions. The conditions noted are these: rats treated with compound 48/80; known serotonin antagonists; cited from earlier work.
In assay [2] the test system is apomorphine-induced emesis. Kind of assay: apomorphine test in dogs (APO-dog). The conditions noted are these: Canis lupus familiaris, sc; beagle dogs; apomorphine 0.31 mg/kg s.c. 1 hour after compound; protection from emesis. It counts as in vivo.
For assay [3], the system named is compound 48/80-induced gastric lesions. In words: gastric lesion test: lesions induced by compound 48/80. It counts as in vivo. The conditions noted are these: Rattus norvegicus, read-out: gastric lesion test ED50.
Assay [4] deals with serotonin-induced contraction of rat caudal artery. Kind of assay: antagonistic activity on the effect of serotonin on the caudal artery of the rat. The conditions noted are these: serotonin 40 ng/ml; minimal concentration reducing contraction amplitude to at least 50% of normal; 5 min. As for the experimental part:
ANTAGONISTIC ACTIVITY ON THE EFFECT OF SEROTONIN ON THE CAUDAL ARTERY OF THE RAT
Caudal arteries from fasted male rats (210-235 g) were used in the test. Two helical strips having a length of 5-6 cm and a width of 2 mm. were obtained from each artery and mounted vertically in a 100 ml organ bath containing an oxygenated Krebs-Henseleit solution. Submaximal contractions of the arterial strips were produced by adding single doses of serotonin (40 ng/ml) to the organ bath for 2 minutes with each time an interval of 10 minutes. The amplitude of the contraction was measured before and 5 minutes after adding the drug. After washing out, the agonist was added again three times in order to see whether the contraction was restored and normalized.

Assay [5] relates to tryptamine-induced bilateral tonic seizures. Kind of assay: tryptamine (TRY) test in rats, part of the combined APO-TRY-NOR test. It counts as in vivo, male Wistar rats. The conditions noted are these: Rattus norvegicus, sc, 1.5 h, tryptamine 40 mg/kg i.v. at 90 min.
For assay [6], the system named is norepinephrine-induced mortality. Kind of assay: norepinephrine (NOR) test in rats, part of the combined APO-TRY-NOR test. It counts as in vivo, male Wistar rats. The conditions noted are these: Rattus norvegicus, sc, 2 h, norepinephrine 1.25 mg/kg i.v. at 120 min. The method, then: THE COMBINED APOMORPHINE (APO)-, TRYPTAMINE (TRY)- AND NOREPINEPHRINE (NOR) TEST IN RATS
The experimental animals used in this test were adult male Wistar rats (weight 240±10 g). After an overnight fast, the animals were treated subcutaneously (1 ml/100 g) with an aqueous solution of the compound under investigation (time=zero) and put in isolated observation cages. […] At the end of this 1 hour period (time=90 minutes) the same animals were injected intravenously with 40 mg/kg of tryptamine (TRY) and the presence of the typical tryptamine-induced bilateral tonic seizures was noted. Two hours after pretreatment (time=120 minutes) finally, the same animals were challenged with 1.25 mg/kg intravenously of norepinephrine (NOR) and possible mortality was looked for up to 60 minutes later.
The table 1 gives the ED50 -values of a number of the compounds under consideration. As used herein, the ED50 -value represents the dose which protects 50% of the animals from apomorphine-, tryptamine- or norepinephrine-induced phenomena.

The test system of assay [7] is compound 48/80-induced lethality. Kind of assay: protection of rats from compound 48/80-induced lethality. The assay is classed as in vivo, male Wistar rats. The conditions noted are these: Rattus norvegicus, sc, 4 h, s.c., compound 48/80 0.5 mg/kg i.v. 1 hour after treatment, 50% protected against lethality, read-out: 48/80-test ED50. The source says: PROTECTION OF RATS FROM COMPOUND 48/80-INDUCED LETHALITY
Compound 48/80, a mixture of oligomers obtained by condensation of 4-methoxy-N-methyl-phenethylamine and formaldehyde has been described as a potent histamine releasing agent (Int. Arch. Allergy, 13, 336 (1958)). The protection from compound 48/80-induced lethal circulatory collapse appears to be a simple way of evaluating quantitatively the antihistaminic activity of test-compounds. Male rats of an inbred Wistar strain, weighing 240-260 g were used in the experiment. After overnight starvation the rats were transferred to conditioned laboratories (temp.=21±1° C., relative humidity=65±5%). The rats were treated subcutaneously or orally with a test compound or with the solvent (NaCl solution, 0.9%). One hour after treatment there was injected intravenously compound 48/80, freshly dissolved in water, at a dose of 0.5 mg/kg (0.2 ml/100 g of body weight). In control experiments, wherein 250 solvent-treated animals were injected with the standard dose of compound 48/80 not more than 2.8% of the animals survived after 4 hours, is therefore considered to be a safe criterion of a protective effect of drug administration.
In this connection the ED50 -values are the minimal doses of the concerned compounds, administered in the subcutaneous way, whereby 50% of the rats are protected against compound 48/80-induced lethality.

The subject of assay [8] is apomorphine-induced phenomena: agitation and stereotypic chewing. In words: apomorphine (APO) test in rats, part of the combined APO-TRY-NOR test. It counts as in vivo, male Wistar rats. The conditions noted are these: Rattus norvegicus, sc, 0.5 h, read-out: ED50 (APO)-rat.
The mark [9] stands for this setting: rats, compound 48/80, distension of the stomach completely absent in 50% of rats.
The mark [10] stands for this setting: s.c., rats, apomorphine 1.25 mg/kg i.v. 30 min after compound.

With `CN(C)CCCSc1ccccc1NC(=O)/C=C/c1ccccc1` [cinanserin], in assay [1], the “prevention of cyanosis of ears and extremities, lesions in the glandular area of the stomach and abnormal gastric distension” value (“prevention” for short) is given as “prevent completely”.
On to `Cc1nc2sc3c(n2c(=O)c1CCN1CCC(C(=O)c2ccc(F)cc2)CC1)CCC3` [compound 8, 3-[2-[4-(4-fluorobenzoyl)-1-piperidinyl]ethyl]7,8-dihydro-2-methyl-4H,6H-cyclopenta[4,5]thiazolo[3,2-a]pyrimidin-4-one], for which the ED50 in assay [2] came to 0.25 mg/kg; in assay [3], 0.04 mg/kg; in assay [5], 0.31 mg/kg; in assay [6], 0.63 mg/kg; in assay [7] it was 0.31 mg/kg; in assay [8], 1.25 mg/kg. In assay [4], the “caudal artery rat ED50” value amounted to 0.32 ng/mL.
In the case of `Cc1nc2sccn2c(=O)c1CCN1CCC(C)(C(=O)c2ccc(F)cc2)CC1` [compound 9, monohydrochloride], the ED50 in assay [2] came out at 0.25 mg/kg; in assay [3] (setting [9]), 0.005 mg/kg; in assay [5] it was 0.16 mg/kg; in assay [6], 1.25 mg/kg; in assay [7], 0.16 mg/kg; in assay [8] it was 0.63 mg/kg. Moreover, in assay [4], the “caudal artery rat ED50” value is 0.32 ng/mL.
Regarding `Cc1nc2scc(C)n2c(=O)c1CCN1CCC(c2c[nH]c3ccccc23)CC1` [compound 11, 6-[2-[4-(1H-indol-3-yl)-1-piperidinyl]ethyl]-3,7-dimethyl-5H-thiazolo[3,2-a]pyrimidin-5-one], the ED50 amounted to 0.004 mg/kg in assay [2]; 0.0025 mg/kg in assay [3] (setting [9]); 0.04 mg/kg in assay [5]; 0.16 mg/kg in assay [6]; 0.08 mg/kg in assay [7]; 0.08 mg/kg in assay [8] (setting [10]). Besides, the “caudal artery rat ED50” value in assay [4] was 0.14 ng/mL.
Regarding `Cc1nc2sccn2c(=O)c1CCN1CCC(c2c[nH]c3ccccc23)CC1` [compound 12, 6-[2-[4-(1H-indol-3-yl)-1-piperidinyl]ethyl]-7-methyl-5H-thiazolo[3,2-a]pyrimidin-5-one], the ED50 in assay [2] is 0.08 mg/kg; in assay [3] (setting [9]) it was 0.08 mg/kg; in assay [5], 0.08 mg/kg; in assay [6], 0.31 mg/kg; in assay [7] it was 0.02 mg/kg; in assay [8] (setting [10]), 0.08 mg/kg. Moreover, the “caudal artery rat ED50” value in assay [4] is 0.08 ng/mL.
For the molecule `Cc1nc2sc3c(n2c(=O)c1CCN1CCC(c2c[nH]c4ccccc24)CC1)CCC3` [compound 17, 7,8-dihydro-3-[2-[4-(1H-indol-3-yl)-1-piperidinyl]ethyl]-2-methyl-4H,6H-cyclopenta[4,5]thiazolo[3,2-a]-pyrimidin-4-one], the ED50 in assay [2] was 0.03 mg/kg; in assay [3] (setting [9]), 0.31 mg/kg; in assay [5], 0.16 mg/kg; in assay [6] it was 0.31 mg/kg; in assay [7] it was 0.08 mg/kg; in assay [8] (setting [10]), 0.63 mg/kg. Moreover, the “caudal artery rat ED50” value in assay [4] is 0.31 ng/mL.
Consider `Cc1nc2sccn2c(=O)c1CCN1CCC(c2c[nH]c3ccc(F)cc23)CC1` [compound 22, 6-[2-[4-(5-fluoro-1H-indol-3-yl)-1-piperidinyl]ethyl]-7-methyl-5H-thiazolo[3,2-a]pyrimidin-5-one], for which the ED50 in assay [2] is 0.12 mg/kg; in assay [3] (setting [9]) it was 0.08 mg/kg; in assay [5], 0.31 mg/kg; in assay [6] it was 1.25 mg/kg; in assay [7] it was 1.25 mg/kg; in assay [8] it was 1.25 mg/kg. In addition, the “caudal artery rat ED50” value in assay [4] is 1.25 ng/mL.
Regarding `Cc1nc2sc(C)c(C)n2c(=O)c1CCN1CCC(c2c[nH]c3ccccc23)CC1` [compound 25, 6-[2-[4-(1H-indol-3-yl)-1-piperidinyl]ethyl]-2,3,7-trimethyl-5H-thiazolo[3,2-a]pyrimidin-5-one], the ED50 in assay [2] came out at 0.015 mg/kg; in assay [3] (setting [9]) it was 0.16 mg/kg; in assay [5] it was 0.16 mg/kg; in assay [6], 0.63 mg/kg; in assay [7], 0.04 mg/kg; in assay [8] (setting [10]) it was 0.31 mg/kg. In addition, the “caudal artery rat ED50” value in assay [4] worked out at 0.32 ng/mL.
Regarding `CN1CCC(=C2c3ccccc3C=Cc3ccccc32)CC1` [cyproheptadine], in assay [1], the “prevention” value is “prevent completely”.
Take `CN1C[C@H](CNC(=O)OCc2ccccc2)C[C@@H]2c3cccc4c3c(cn4C)C[C@H]21` [metergoline]: in assay [1], the “prevention” value is on record as “prevent completely”.
For `CC[C@@H](CO)NC(=O)[C@@H]1C=C2c3cccc4c3c(cn4C)C[C@H]2N(C)C1` [methysergide], in assay [1], the “prevention” value was “prevent completely”.
Consider `CN1CCN2c3ccccc3Cc3ccccc3C2C1` (stereo not drawn) [mianserin], for which the “prevention” value in assay [1] is listed as “prevent completely”.
`NC(=O)C1(N2CCCCC2)CCN(CCCC(=O)c2ccc(F)cc2)CC1` [pipamperone]: the “prevention” value in assay [1] is “prevent completely”.
As to `CN1CCC(=C2c3ccccc3CCc3sccc32)CC1` [pizotifen], the “prevention” value in assay [1] was “prevent completely”.
For `O=C(CCCN1CCC2(CC1)C(=O)NCN2c1ccccc1)c1ccc(F)cc1` [spiperone], in assay [1], the “prevention” value was “prevent completely”.
